Values of other authors, collected in patent US20220361462A1, “ANIMAL MODEL FOR NEURODEGENERATIVE DISORDERS” (NEURO-BIO LTD, priority 2019, published 2022).
No end group written: not given here.

Test system: cell lines
Details: previously shown by the inventors

NBP-14: candidate modulator of the α7-nAChR, the cyclized form of T14, cyclic SEQ ID No:4 (AEFHRWSSYMVHWK; not fully specified; also: cyclised, mode not given here; listed as Homo sapiens)
effect on AD-like phenotype promoted by AChE-derived peptide on cell lines: blocked
